The values below are quoted from earlier work in patent US5965423A, “Human lysophospholipase” (Incyte Pharmaceuticals, Inc., priority 1998, dated 1999).

In the data set the target is T1, monomeric, 24 kD lysophospholipase (LPL) from rat liver (Rattus norvegicus, UniProt P70470).
T1 construct: isolated a monomeric, 24 kD LPL from rat liver; host or cells: rat liver (tissue-purified enzyme, Sugimoto et al. 1996)
The note with it: substrate 1-palmitoyl-glycero-3-phosphocholine; substrate dependence curve sigmoidal.

SMILES strings stand for the structures.

T1 sequence (P70470 whole entry): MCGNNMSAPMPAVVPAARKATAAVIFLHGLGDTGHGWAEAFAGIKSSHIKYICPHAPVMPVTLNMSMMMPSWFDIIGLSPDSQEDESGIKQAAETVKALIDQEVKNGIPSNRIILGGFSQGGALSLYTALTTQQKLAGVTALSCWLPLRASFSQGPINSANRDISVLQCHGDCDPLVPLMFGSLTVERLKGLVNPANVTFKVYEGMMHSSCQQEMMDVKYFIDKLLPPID

As usually defined, the Km is the substrate concentration at which the rate is half of its maximum. In general, Vmax refers to the rate approached at saturating substrate. In the case of `CCCCCCCCCCCCCCCC(=O)OCC(O)COP(=O)([O-])OCC[N+](C)(C)C` (centres unmarked) [1-palmitoyl-glycero-3-phosphocholine], the Km was 170 µM and the maximal velocity (Vmax) is 1.55 µM/min/mg.
